Laboratory results from ChEMBL document CHEMBL2169787, “The biology and chemistry of antifungal agents: a review” (2012).
≈ marks a conversion by molar mass, not a printed value.

Experiments:
Type in all cases: functional
Cryptococcus neoformans [1] = test: Antifungal activity against Cryptococcus neoformans after 72 hrs by NCCLS broth microdilution method
Aspergillus fumigatus [2] = test: Antifungal activity against Aspergillus fumigatus
Candida albicans = test: Antifungal activity against Candida albicans; settings: for MIC: Candida albicans
Sporothrix schenckii = test: Antifungal activity against Sporothrix schenckii
[3] = tested on: Trichophyton mentagrophytes; test: Antifungal activity against Trichophyton mentagrophytes
Microsporum canis = test: Antifungal activity against Microsporum canis
Cryptococcus neoformans [4] = test: Antifungal activity against Cryptococcus neoformans
Candida = test: Antifungal activity against Candida spp
Aspergillus niger [5] = test: Antifungal activity against Aspergillus niger; settings: for MIC: Aspergillus niger
Aspergillus flavus [6] = test: Antifungal activity against Aspergillus flavus; settings: for MIC: Aspergillus flavus
Trichophyton rubrum = test: Antifungal activity against Trichophyton rubrum
Trichophyton tonsurans = test: Antifungal activity against Trichophyton tonsurans
Fusarium verticillioides = test: Antifungal activity against Fusarium moniliforme
Lasiodiplodia theobromae = test: Antifungal activity against Botryodiplodia theobromae
Candida tropicalis = test: Antifungal activity against Candida tropicalis
Pichia kudriavzevii = test: Antifungal activity against Candida krusei
Fusarium oxysporum = test: Antifungal activity against Fusarium oxysporum
Trichoderma viride = test: Antifungal activity against Trichoderma viride
Microsporum = test: Antifungal activity against Microsporum […]
Candida parapsilosis [7] = test: Antifungal activity against Candida parapsilosis; settings: Lodderomyces parapsilosis
Aspergillus flavus [8] = test: Antifungal activity against Aspergillus flavus assessed as growth inhibition
Aspergillus niger [9] = test: Antifungal activity against Aspergillus niger assessed as growth inhibition
Macrophomina phaseolina = test: Antifungal activity against Macrophomina phaseolina
Aspergillus ochraceus = test: Antifungal activity against Aspergillus ochraceus
Candida parapsilosis [10] = test: Antifungal activity against Candida parapsilosis ATCC 22019; settings: Lodderomyces parapsilosis
Aspergillus fumigatus [11] = test: Antifungal activity against Aspergillus fumigatus assessed as growth inhibition

In the case of `CCC(c1cccc2ccccc12)N(C)C/C=C/C#CC(C)(C)C` (configuration not stated), the MIC50 (Cryptococcus neoformans [1]) is reported as 0.5 mg/L (≈ 1.56 µM).

With `O=C(O)CCSC1=C(CO)C(=O)c2ccccc2C1=O` the MIC (Aspergillus fumigatus [2]) was 0.78 mg/L (≈ 2.67 µM), the MIC (Candida albicans) was 0.78 mg/L (≈ 2.67 µM) and the MIC (Sporothrix schenckii) was 0.78 mg/L (≈ 2.67 µM). For the same compound, the MIC [3] was 0.78 mg/L (≈ 2.67 µM), the MIC (Microsporum canis) was 0.78 mg/L (≈ 2.67 µM) and the MIC (Cryptococcus neoformans [4]) was 0.78 mg/L (≈ 2.67 µM).

`COC(=O)C1(C)C2(C(=O)N(c3ccccc3)N=C2C)C1(c1ccccc1)c1ccccc1` (configuration not stated) gave an MIC (Candida) of 25 mg/L (≈ 58.9 µM).

For `O=C(Nc1ccccc1-c1nnc(-c2ccccc2)o1)c1ccccc1`, the “inhibition zone (IZ)” value (Aspergillus niger [5]) was 15 mm and the “inhibition zone (IZ)” value (Aspergillus flavus [6]) was 11 mm.

For `CCOC(=O)C1C2(C(=O)N(c3ccccc3)N=C2C)C1(c1ccccc1)c1ccccc1` (configuration not stated), the MIC (Candida) was 25 mg/L (≈ 58.9 µM).

Compound `CC1=NN(c2ccccc2)C(=O)C12C(C)(C(=O)OC(C)(C)C)C2(c1ccccc1)c1ccccc1` (configuration not stated) has an MIC (Candida) of 25 mg/L (≈ 53.6 µM).

Compound `CC1=NN(c2ccccc2)C(=O)C12C(C)(C(=O)OC(C)C)C2(c1ccccc1)c1ccccc1` (configuration not stated) has an MIC (Candida) of 25 mg/L (≈ 55.2 µM).

With `Clc1ccc(COC(Cn2ccnc2)c2ccc(Cl)cc2Cl)c(Cl)c1` (configuration not stated) [MICONAZOLE] the MIC (Trichophyton rubrum) was 0.4 mg/L (≈ 0.961 µM), the MIC (Candida) was 2 mg/L (≈ 4.81 µM) and the MIC (Trichophyton tonsurans) was 0.2 mg/L (≈ 0.481 µM).

`OC(Cn1cncn1)(Cn1cncn1)c1ccc(F)cc1F` [FLUCONAZOLE] showed an MIC (Cryptococcus neoformans [4]) of 0.53 mg/L (≈ 1.73 µM).

With `OCC1CC(c2ccc(-c3ccccc3)cc2)N(c2ccc(F)cc2)O1` (configuration not stated) the MIC (Fusarium verticillioides) was 2.5 mg/L (≈ 7.16 µM), the MIC (Lasiodiplodia theobromae) was 2.5 mg/L (≈ 7.16 µM) and the MIC (Aspergillus flavus [6]) was 2.5 mg/L (≈ 7.16 µM).

For `Nc1nc(=O)[nH]cc1F` [FLUCYTOSINE], the MIC (Candida albicans) was 12.5 mg/L (≈ 96.8 µM), the MIC (Candida tropicalis) was 12.5 mg/L (≈ 96.8 µM) and the MIC (Aspergillus niger [5]) was 12.5 mg/L (≈ 96.8 µM). It also gave an MIC (Pichia kudriavzevii) of 12.5 mg/L (≈ 96.8 µM) and an MIC (Aspergillus flavus [6]) of 12.5 mg/L (≈ 96.8 µM).

Work on `COC(=O)C1C2(C(=O)N(c3ccccc3)N=C2C)C1(c1ccccc1)c1ccccc1` (configuration not stated) yielded an MIC (Candida) of 25 mg/L (≈ 60.9 µM).

NYSTATIN showed an inhibition zone (IZ) (Candida) of 20 mm.

Work on `CC1=NN(c2ccccc2)C(=O)C12C(C(=O)OC(C)(C)C)C2(c1ccccc1)c1ccccc1` (configuration not stated) yielded an MIC (Candida) of 25 mg/L (≈ 55.2 µM).

For `CCCCCCCCCCCCCCCc1nnc(CCCCCCC/C=C/CC(O)CCCCCC)o1` (configuration not stated), the “inhibition zone (IZ)” value (Fusarium oxysporum) was 15 mm, the “inhibition zone (IZ)” value (Candida albicans) was 15 mm and the “inhibition zone (IZ)” value (Trichoderma viride) was 15 mm. The “inhibition zone (IZ)” value (Aspergillus niger [5]) was 15 mm.

`OC(CN1CCN(c2ccc(OCc3ccc(F)cc3)cc2)CC1)(Cn1cncn1)c1ccccc1` (configuration not stated) showed an MIC (Microsporum) of 0.0625 mg/L (≈ 0.128 µM), an MIC (Trichophyton rubrum) of 0.0625 mg/L (≈ 0.128 µM) and an MIC (Aspergillus fumigatus [2]) of 0.0625 mg/L (≈ 0.128 µM). For the same compound, the MIC (Candida tropicalis) was 0.0625 mg/L (≈ 0.128 µM), the MIC (Candida parapsilosis [7]) was 0.0625 mg/L (≈ 0.128 µM) and the MIC (Cryptococcus neoformans [4]) was 0.0625 mg/L (≈ 0.128 µM).

Work on `CCCCOc1ccccc1N1CCN(CCc2nnn(C(C)C(O)(Cn3cncn3)c3ccc(F)cc3F)n2)CC1` (configuration not stated) yielded an MIC (Candida albicans) of 1 mg/L (≈ 1.72 µM), an MIC (Candida tropicalis) of 1 mg/L (≈ 1.72 µM) and an MIC (Candida parapsilosis [7]) of 1 mg/L (≈ 1.72 µM). It also gave an MIC (Cryptococcus neoformans [4]) of 1 mg/L (≈ 1.72 µM).

`CCCn1cc(-c2ccc(Cl)cc2)c(C(c2ccccc2)n2ccnc2)c1` (configuration not stated) was tested, and the MIC (Candida albicans) was 0.016 mg/L (≈ 0.0426 µM).

In the case of `O=C1C(CO)=C(Sc2ccccc2)C(=O)c2ccccc21`, the MIC (Aspergillus fumigatus [2]) is reported as 0.78 mg/L (≈ 2.63 µM), the MIC (Candida albicans) is reported as 0.78 mg/L (≈ 2.63 µM) and the MIC (Sporothrix schenckii) is reported as 0.78 mg/L (≈ 2.63 µM). It also gave an MIC [3] of 0.78 mg/L (≈ 2.63 µM), an MIC (Microsporum canis) of 0.78 mg/L (≈ 2.63 µM) and an MIC (Cryptococcus neoformans [4]) of 0.78 mg/L (≈ 2.63 µM).

In the case of `N#CC(=C1CCCC1)c1nc2cc(Cl)ccc2o1`, the “growth inhibition (GI)” value (Aspergillus flavus [8]) is reported as 60% and the “growth inhibition (GI)” value (Aspergillus niger [9]) is reported as 60%.

`OC(CN1CCN(c2ccc(OCc3ccncc3)cc2)CC1)(Cn1cncn1)c1ccccc1` (configuration not stated) gave an MIC (Microsporum) of 0.0625 mg/L (≈ 0.133 µM), an MIC (Trichophyton rubrum) of 0.0625 mg/L (≈ 0.133 µM) and an MIC (Aspergillus fumigatus [2]) of 0.0625 mg/L (≈ 0.133 µM). For the same compound, the MIC (Candida tropicalis) was 0.0625 mg/L (≈ 0.133 µM), the MIC (Candida parapsilosis [7]) was 0.0625 mg/L (≈ 0.133 µM) and the MIC (Cryptococcus neoformans [4]) was 0.0625 mg/L (≈ 0.133 µM).

With `N#Cc1c(Cl)c(Cl)c(Cl)c(C#N)c1Cl` [CHLOROTHALONIL] the MIC (Fusarium oxysporum; Fusarium oxysporum) was 52 mg/L (≈ 196 µM), the MIC (Macrophomina phaseolina) was 52 mg/L (≈ 196 µM) and the MIC (Aspergillus niger [5]) was 52 mg/L (≈ 196 µM).

In the case of `N#CC1=C(N)OC2=C(SC3=NC4=C(C(=O)CCC4)C(c4ccc(F)cc4)N32)C1c1ccc(Cl)cc1` (configuration not stated), the MIC (Aspergillus ochraceus) is reported as 40 mg/L (≈ 79.2 µM) and the MIC (Aspergillus flavus [6]) is reported as 40 mg/L (≈ 79.2 µM).

Compound `C[C@H](CCCN1C=NN(CC(O)(Cn2cncn2)c2ccc(F)cc2F)C1)[C@H]1CC[C@H]2[C@@H]3CC[C@@H]4CCCC[C@]4(C)[C@H]3CC[C@]12C` (some centres not stated) has an MIC (Candida albicans) of 2.18 mg/L (≈ 3.42 µM), an MIC (Candida parapsilosis [10]) of 2.18 mg/L (≈ 3.42 µM) and an MIC (Sporothrix schenckii) of 2.18 mg/L (≈ 3.42 µM).

For `COC(=O)Nc1nc2ccccc2[nH]1` [CARBENDAZIM], the “growth inhibition (GI)” value (Aspergillus fumigatus [11]) was 92% and the “growth inhibition (GI)” value (Aspergillus niger [9]) was 90%.
